Source: US20040231558A1, “Water-color ink” (priority 2001, published 2004)

Tests used:
[1] = Evaluation of light fastness-2 (OD value of printed portion after 400 hours xenon fadeometer); type: physicochemical; settings: for (A)-2 light fastness-2: ink prepared as in Example 1 from the salt named in the row, OD value of printed portion after 400 hours xenon fadeometer
How it was run: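 Ink loaded into a piezo ink-jet printer (EM-930C) and printed; printed portion irradiated for 400 hours in a xenon fadeometer, then printing density (OD value) measured to judge light fastness.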

[2] = Evaluation of moisture resistance (image-recorded paper at 40° C. and humidity 85%, visual observation); type: physicochemical; settings: for (B) moisture resistance: image-recorded paper at 40° C. and humidity 85%, visually observed
[3] = Evaluation of storage stability of ink (40° C. for 3 months, insoluble matter and clogging); type: physicochemical; settings: recording liquid stored at 40° C. for 3 months; for (C) storage stability: insoluble matter and clogging
How it was run: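 Ink stored at 40° C. for 3 months, then checked for precipitated insoluble matter. Clogging assessed after long continuous recording on a piezo-type ink-jet printer.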

[4] = Solubility in water of the salt
[5] = Evaluation of light fastness-1 (OD value of printed portion after 100 hours xenon fadeometer); type: physicochemical; settings: ink prepared as in Example 1 from the salt named in the row; OD value of printed portion after 100 hours xenon fadeometer
How it was run: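 Prints were made on a piezo ink-jet printer. Optical density of the printed portion was measured after 100 hours of irradiation in a xenon fadeometer.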

Structure (SMILES)	Evaluation of light fastness-2 ([1]; ink with 3% dye printed with ink-jet printer EM-930C, 400 hours xenon fadeometer, OD value vs before irradiation)	Evaluation of moisture resistance ([2]; image-recorded paper at 40° C., humidity 85%, visual observation)	Evaluation of ink storage stability ([3]; precipitation and clogging)	Solubility in water ([4]; % by weight) [%]	(A)-1 light fastness-1 [5]	(A)-2 light fastness-2 [1]	(B) moisture resistance [2]	(C) storage stability [3]	Solubility in water ([4]; salt type M1 to M4) [%]
Cc1c(N=Nc2cc(C(=O)[O-])ccc2C(=O)[O-])c(O)[nH]c(=O)c1C#N.[K+].[K+] [potassium salt of compound No. 11]	♯	ο	ο	≥ 3					
C[N+](C)(C)C.C[N+](C)(C)C.C[N+](C)(C)C.C[N+](C)(C)C.Cc1c(N=Nc2cc(C(=O)[O-])ccc2C(=O)[O-])c(O)n(CCNc2nc(Cl)nc(NCCn3c(O)c(N=Nc4cc(C(=O)[O-])ccc4C(=O)[O-])c(C)c(C#N)c3=O)n2)c(=O)c1C#N				≥ 5	⊚	∘	⊚	∘	
Cc1c(N=Nc2c(C(=O)O)cccc2C(=O)O)c(O)[nH]c(=O)c1C#N [compound 16]					⊚	⊚	Δ	◯	>5
CNC(=O)c1cc(C(=O)O)c(N=Nc2c(O)[nH]c(=O)c(C#N)c2C)cc1C(=O)O [compound 14]					⊚	⊚	◯	◯	>3
Cc1c(C(=O)O)ccc(C(=O)O)c1N=Nc1c(C)c(C#N)c(=O)n(CCCS(=O)(=O)O)c1O [compound 137]					⊚	⊚	Δ	◯	>5
Cc1c(N=Nc2cccc(C(=O)O)c2C(=O)O)c(O)[nH]c(=O)c1C#N [Compound No. 1]					⊚	⊚	◯	◯	>3
Cc1c(N=Nc2cc(C(=O)[O-])ccc2C(=O)[O-])c(O)n(CCNc2nc(Cl)nc(NCCn3c(O)c(N=Nc4cc(C(=O)[O-])ccc4C(=O)[O-])c(C)c(C#N)c3=O)n2)c(=O)c1C#N.[K+].[K+].[K+].[K+] [potassium salt of compound No. 245]				≥ 3	⊚	∘	⊚	∘	
C[N+](C)(C)C.C[N+](C)(C)C.Cc1c(N=Nc2cc(C(=O)[O-])ccc2C(=O)[O-])c(O)[nH]c(=O)c1C#N				≥ 3		♯	ο	ο	
Cc1c(N=Nc2cccc(C(=O)O)c2C(=O)O)c(O)n(CCCC(=O)O)c(=O)c1C#N [compound 48]					⊚	◯	◯	◯	>5
Cc1c(N=Nc2cccc(C(=O)O)c2C(=O)O)c(O)n(CS(=O)(=O)O)c(=O)c1C#N [compound 105]					⊚	◯	Δ	◯	>5
Cc1c(N=Nc2cc(C(=O)O)ccc2C(=O)O)c(O)[nH]c(=O)c1C#N [Compound No. 11]					⊚	⊚	◯	◯	>3
Cc1c(N=Nc2cccc(C(=O)O)c2C(=O)O)c(O)n(C(=O)O)c(=O)c1C#N [compound 46]					⊚	Δ	◯	Δ	>5
Cc1c(N=Nc2cc(S(=O)(=O)O)ccc2C(=O)O)c(O)n(CCC(=O)O)c(=O)c1C#N [compound 218]					⊚	⊚		◯	>5
Cc1c(N=Nc2cc(S(=O)(=O)O)c(C(=O)O)cc2C(=O)O)c(O)[nH]c(=O)c1C#N [compound 7]					⊚	⊚	Δ	◯	>10
Cc1c(N=Nc2cc(C(=O)O)ccc2C(=O)O)c(O)n(-c2cc(S(=O)(=O)O)cc(S(=O)(=O)O)c2)c(=O)c1C#N [compound 142]					⊚	◯	◯	◯	>8
Cc1c(N=Nc2cc(C(=O)O)ccc2C(=O)O)c(O)n(CC(=O)O)c(=O)c1C#N [compound 77]					⊚	⊚	Δ	◯	>5
Cc1c(N=Nc2c(C(=O)O)cccc2C(=O)O)c(O)n(C(O)CO)c(=O)c1C#N (centres unmarked) [compound 43]					⊚	⊚	Δ	◯	>5
Cc1c(C(=O)O)ccc(C(=O)O)c1N=Nc1c(C)c(C#N)c(=O)n(CC(O)CC(=O)O)c1O (centres unmarked) [compound 164]					⊚	◯	◯	◯	>8
Cc1c(N=Nc2cc(Cl)cc(C(=O)O)c2C(=O)O)c(O)[nH]c(=O)c1C#N [compound 3]					⊚	⊚	◯	◯	>3
Cc1c(C(=O)O)ccc(C(=O)O)c1N=Nc1c(O)[nH]c(=O)c(C#N)c1C [Compound No. 24]					⊚	◯	◯	◯	>5
Cc1c(N=Nc2cccc(C(=O)O)c2C(=O)O)c(O)n(CCS(=O)(=O)O)c(=O)c1C#N [compound 106]					⊚	⊚ and Δ	Δ and ◯	◯ and Δ	>5
Cc1c(N=Nc2cc(C(=O)O)ccc2C(=O)O)c(O)n(Cc2cc(S(=O)(=O)O)cc(S(=O)(=O)O)c2)c(=O)c1C#N [compound 149]					⊚	◯	◯	◯	>10
N#Cc1c(-c2ccccc2)c(N=Nc2cc(C(=O)O)ccc2C(=O)O)c(O)n(CCNC(=O)c2cc(C(=O)O)c(C(=O)NCCn3c(O)c(N=Nc4cc(C(=O)O)ccc4C(=O)O)c(-c4ccccc4)c(C#N)c3=O)cc2C(=O)O)c1=O [Compound 285]					⊚	⊚⊚	⊚	◯	
Cc1c(N=Nc2cccc(C(=O)O)c2C(=O)O)c(O)n(Cc2ccc(C(=O)O)cc2)c(=O)c1C#N [compound 58]					⊚	◯	Δ	◯	>5
